Patent US9085559B2, “Triazine-aryl-bis-indoles and process for preparation thereof” (COUNCIL OF SCIENTIFIC & INDUSTRIAL RESEARCH, priority 2010, dated 2015)
Values after ≈ are worked out from the molar mass of the structure shown.

Assays:
[1] = Balb/c 3T3 Neutral Red Uptake (NRU) cytotoxicity assay; format: cell-based; conditions: mouse
Excerpt: (§1) FIG. 8. IICT-TA67 is not toxic. To evaluate the cytotoxicity of test chemical (IICT-TA67) BALB/c 3T3 cell line was used for Neutral Red Uptake (NRU) cytotoxicity test. The test result has been used to determine IC50 for IICT-TA67 and acute oral toxicity (LD50) in rodent was predicted.
(§2) Basal cytotoxicity of IICT-TA67 has been performed to measure IC50 and thereafter predict in vivo acute oral LD50 values in rodent by using Halle's Registry of cytotoxicity (RC) prediction model: log (LD50)=0.435×log (IC50)+0.625 (Halle, 1998; Spielmann et al., 1999). Balb/c 3T3 Neutral Red Dye Uptake (NRU) cytotoxicity assay procedure was adopted (Liebsch & Spielmann 1995). In brief 3T3 cell were grown in 96 well microtitre plates and exposed to IICT-TA-67. After 48-hour incubation, the test material was removed and Neutral red (NR) solution was applied to the cells. The cells were incubated again, the excess NR solution was removed and finally NR was eluted from the cells. The NRU was determined by using a microtitre plate reader to measure the optical density at 540 nm of the eluted dye in 96 well plate. A calculation of cell viability expressed as NRU was made for each concentration of the test chemical by using the mean NRU of 6 replicate values per test concentration. The cell viability value was compared with the mean NRU of all vehicle control values and relative cell viability was then expressed as percent of untreated vehicle control. […] Although the percentage of viability is slightly more than 95% at 50 μg/ml of IICT-67, 30 μg/ml (% viability of cells is 98%)

BALB/c 3T3 cell line = test: as above; format: cell-based; conditions: for toxicity: NRU cytotoxicity test (FIG. 8)
Excerpt: as §1, §2

rodent = test: Prediction of acute oral LD50 from the IC50 by Halle's Registry of cytotoxicity (RC) prediction model; conditions: log (LD50)=0.435×log (IC50)+0.625
Excerpt: as §1
Basal cytotoxicity of IICT-TA67 has been performed to measure IC50 and thereafter predict in vivo acute oral LD50 values in rodent by using Halle's Registry of cytotoxicity (RC) prediction model: log (LD50)=0.435×log (IC50)+0.625 (Halle, 1998; Spielmann et al., 1999). Balb/c 3T3 Neutral Red Dye Uptake (NRU) cytotoxicity assay procedure was adopted (Liebsch & Spielmann 1995). In brief 3T3 cell were grown in 96 well microtitre plates and exposed to IICT-TA-67. After 48-hour incubation, the test material was removed and Neutral red (NR) solution was applied to the cells. […] The NRU was determined by using a microtitre plate reader to measure the optical density at 540 nm of the eluted dye in 96 well plate. A calculation of cell viability expressed as NRU was made for each concentration of the test chemical by using the mean NRU of 6 replicate values per test concentration. The cell viability value was compared with the mean NRU of all vehicle control values and relative cell viability was then expressed as percent of untreated vehicle control. […]

[2] = system: Vascular Cell Adhesion Molecule type 1 (VCAM-1); test: Cell-ELISA, TNF-α induced VCAM-1 expression on HUVECs; format: cell-based; conditions: Homo sapiens, HUVEC; HUVECs pretreated 2 hours, TNF-α 16 hours
Description: FIG. 4. Inhibition of TNF-α induced expression Intercellular Adhesion Molecule type 1 (ICAM-1) and Vascular Cell Adhesion Molecule type 1 (VCAM-1) on HUVECs by IICT-TA67. To determine the effect of IICT-TA67 on TNF-α induced cell adhesion molecules such as ICAM-1 and VCAM-1, HUVECs were pretreated with various concentrations of IICT-TA67 for 2 hours followed by induction with TNF-α for 16 hours. The cell surface expression of cell adhesion molecules was measured by ELISA.
Cell-ELISA was used for measuring the expression of ICAM-1 on surface of endothelial cells. Endothelial cells were incubated with or without IICT-TA67 at desired concentrations for the required period, followed by treatment with TNF-α (10 ng/ml) for 16 h for ICAM-1 and VCAM-1 expression. The cells were fixed with 1.0% glutaraldehyde. Non-specific binding of antibody was blocked by using skimmed milk (3.0% in PBS). Cells were incubated overnight at 4° C. with anti-ICAM-1 mAb anti-VCAM-1 antibody, diluted in blocking buffer, the cells were further washed with PBS and incubated with peroxidase-conjugated goat anti-mouse secondary Abs. […] Reaction was stopped by the addition of 2 N sulfuric acid and absorbance at 490 nm was measured using microplate reader (Spectramax 190, Molecular Devices, USA).

## COc1ccc(C(c2[nH]c3ccccc3c2CC(=O)O)c2[nH]c3ccccc3c2CC(=O)O)cc1Oc1nc(NC2CC2)nc(NC2CC2)n1 [Compound 7, 2,2′-[2,2′-3-(4,6-bis-cyclopropylamino)-1,3,5-triazin-2-yl-oxy-4-methoxy-phenyl]-methylene-bis-(1H-indole-3,3-diyl)-diacetic acid]
[1]
  IC50 at 48 h: 32 µg/mL (≈ 47.5 µM)
BALB/c 3T3 cell line; 30 μg/ml
  % viability of cells: 98%
BALB/c 3T3 cell line; 50 μg/ml
  percentage of viability: more than 95%
BALB/c 3T3 cell line; listed as IICT-67
  toxicity: does not seem to be toxic to endothelial cells
BALB/c 3T3 cell line; listed as IICT-TA67
  toxicity: not toxic
rodent
  predicted acute oral LD50: 430 mg/kg body weight
[2]
  IC50: 16.6 µg/mL (≈ 24.6 µM)
